In patent US20120021434A1, “METHOD FOR TREATING B CELL REGULATED AUTOIMMUNE DISORDERS” (Synta Pharmaceuticals Corp., priority 2005, published 2012):

What was measured:
Format in all cases: cell-based
[1] = tested on: purified mouse splenic (CD19+) B cells; assay: Primary mouse B cell survival, Annexin V/propidium iodide flow cytometry; conditions: 24 h; for viability at 0.0001 µM / viability at 0.001 µM / viability at 0.01 µM / viability at 0.1 µM / viability at 1 µM: Mus musculus, B-cell
Description: Therefore, the effect of Compound 50 on the activation and survival of homogeneous populations of primary B and T lymphocytes has been explored. As a first step in this process, we evaluated the effect of Compound 50 on the survival of purified mouse splenic (CD19^+) B cells. When cultured ex vivo, primary B cells undergo spontaneous apoptosis within 24-48 h in the absence of any survival signals. Examples of such stimuli include those mediated by anti-CD40 (or CD40L), BAFF, or B cell receptor signals provided by either anti-IgM or LPS. Murine primary B cells were isolated from mouse spleen using anti-CD19 coated magnetic beads (Miltenyi Biotec) according to the manufacturer's recommendations. Purified CD19^+ B cells were cultured at 100,000 cells/well in 96-well microtiter plates in culture medium (RPMI 1640 supplemented with 10% fetal bovine serum, 2 mM L-glutamine, 1 mM sodium pyruvate, 20 mM HEPES, and 55 μM β-mercaptoethanol) in the presence of 10 μg/ml anti-CD40, 5 μg/ml LPS or 100 ng/ml BAFF in the presence or absence of Compound 50 for 24 h and measured the frequency of viable and apoptotic cells using Annexin V/propidum iodide flow cytometric analysis. To perform this analysis, cells were washed with PBS and labeled with Annexin V-FITC and propidium iodide (BioVision) according to the manufacturer's instructions. Apoptotic cell (Annexin V-positive) and live cell (Annexin V-negative/propidium iodide-negative) percentages were determined using a flow cytometer.

[2] = tested on: IL-12 promoter (p40 expression); assay: IL-12 promoter-Luc reporter with ICSBP over-expression; conditions: co-transfection of ICSBP construct with IL-12 promoter-Luc reporter
Source text: ICSBP, whose expression was reduced by Compound 50, was over-expressed using co-transfection with the IL-12 promoter-Luc report system. The over-expression construct of ICSBP was generated by PCR from cDNA of human PBMC using primers as follow: ICSBP-exp-F: 5′-[…]-3′ (SEQ ID NO:1) and ICSBP-exp-R: 5′-[…]-3′ (SEQ ID NO:2), the resulting PCR products was ligated to pCI vector (Promega).

p52 = p52 nuclear translocation in IFNγ+LPS-stimulated THP1 cells (immunoblot); conditions: 100 nM, 6 h
Description: (§1) RelB and p52 are two members of Rel family, which are preferentially complexed with each other. To determine the effect of Compound 50 on p52 and Rel-B nuclear translocation, THP1 cells were stimulated with IFNγ+LPS in either the presence or absence of 100 nM Compound 50 and the distribution of p52 and Rel-B was determined by immunoblotting of nuclear at 6 h post-treatment.

Rel-B = Rel-B nuclear translocation in IFNγ+LPS-stimulated THP1 cells (immunoblot); conditions: 100 nM, 6 h
Description: as §1

## Cc1cccc(/C=N/Nc2cc(N3CCOCC3)nc(OCCc3ccccn3)n2)c1 [Compound 50, N-(3-Methyl-benzylidene)-N′-[6-morpholin-4-yl-2-(2-pyridin-2-yl-ethoxy)-pyrimidin-4-yl]-hydrazine]
[1]; Anti-CD40 (10 μg/ml), 0.1 nM
  % Apoptotic: 39%
  viability at 0.0001 µM: 55%
[1]; Anti-CD40 (10 μg/ml), 1 nM
  % Apoptotic: 37%
  viability at 0.001 µM: 51%
[1]; Anti-CD40 (10 μg/ml), 10 nM
  % Apoptotic: 46%
  viability at 0.01 µM: 48%
[1]; Anti-CD40 (10 μg/ml), 100 nM
  % Apoptotic: 89%
  viability at 0.1 µM: 5%
[1]; Anti-CD40 (10 μg/ml), 1000 nM
  % Apoptotic: 90%
  viability at 1 µM: 3%
[1]; BAFF (100 ng/ml), 0.1 nM
  % Apoptotic: 40%
  viability at 0.0001 µM: 55%
[1]; BAFF (100 ng/ml), 1 nM
  % Apoptotic: 43%
  viability at 0.001 µM: 52%
[1]; BAFF (100 ng/ml), 10 nM
  % Apoptotic: 52%
  viability at 0.01 µM: 43%
[1]; BAFF (100 ng/ml), 100 nM
  % Apoptotic: 92%
  viability at 0.1 µM: 4%
[1]; BAFF (100 ng/ml), 1000 nM
  % Apoptotic: 93%
  viability at 1 µM: 3%
[1]; LPS (5 μg/ml), 0.1 nM
  % Apoptotic: 31%
  viability at 0.0001 µM: 63%
[1]; LPS (5 μg/ml), 1 nM
  % Apoptotic: 32%
  viability at 0.001 µM: 63%
[1]; LPS (5 μg/ml), 10 nM
  % Apoptotic: 44%
  viability at 0.01 µM: 51%
[1]; LPS (5 μg/ml), 100 nM
  % Apoptotic: 79%
  viability at 0.1 µM: 15%
[1]; LPS (5 μg/ml), 1000 nM
  % Apoptotic: 79%
  viability at 1 µM: 13%
[1]; concentrations 100 nM, with anti-CD40, LPS or BAFF
  B cells apoptotic: 80-90%
[2]
  inhibition of p40 expression under ICSBP over-expression: decreased the inhibition
p52
  nuclear p52: No significant difference
Rel-B
  nuclear Rel-B: slightly increased
